Measurements taken from patent publication US20230114728A1 (Venatorx Pharmaceuticals, Inc., priority 2019, published 2023).
In brackets after ≈: the same amount, converted by molar mass.

Columns and labels:
[1] = target: T1, E. coli K12 PBP3 (Escherichia coli, UniProt P0AD68); assay: biochemical; format: binding
T1 construct: made in house
How it was run: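 Fluorescence polarization (ex 490/em 520 nm) competition of inhibitors against Bocillin-FL at 0.1 μM, read up to 60 min. Final PBP levels: E. coli PBP3 1.5 μM; A. baumannii PBP2 2.5 μM, PBP3 0.2 μM in Tris pH 8.0/NaCl/glycerol/Tween 20; N. gonorrhoeae PBP2 […] in Hepes pH 8.0/NaCl/glycerol. EC50 = concentration halving PBP-bound Bocillin-FL.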

[2] = tested on: P. aeruginosa ATCC 27853; assay: Broth microdilution MIC in CAMHB; format: cell-based; details: Pseudomonas aeruginosa, ATCC27853; MHB; read-out: Minimum Inhibitory Concentration, P. aeruginosa ATCC 27853
How it was run: (§1)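 CLSI broth microdilution in CAMHB: 2-fold compound dilutions inoculated at 2-8×10^5 CFU/mL from 3-5 h log-phase cultures. Incubated at 37 °C for 16-20 h (Enterobacteriaceae, Pseudomonas); MIC read visually as lowest concentration without growth. Strains include hyper-permeable and efflux-deficient mutants.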

[3] = tested on: E. coli AG100; assay: Broth microdilution MIC in CAMHB; format: cell-based; details: Escherichia coli; E. coli AG100 (wild-type parent); MHB; read-out: Minimum Inhibitory Concentration, E. coli AG100
How it was run: as §1

[4] = tested on: K. pneumoniae SI-117 producing VIM-1; assay: Broth microdilution MIC in CAMHB; format: cell-based; details: Klebsiella pneumoniae, read-out: Minimum Inhibitory Concentration, K. pneumoniae SI-117
How it was run: as §1

[5] = tested on: K. pneumoniae UMM producing SHV-5 and KPC-2; assay: Broth microdilution MIC in CAMHB; format: cell-based; details: Klebsiella pneumoniae, read-out: Minimum Inhibitory Concentration, K. pneumoniae UMM
How it was run: as §1

[6] = tested on: E. coli 901C; assay: Broth microdilution MIC in CAMHB; format: cell-based; details: Escherichia coli; E. coli 901C (hyper-permeable); MHB; read-out: Minimum Inhibitory Concentration, E. coli 901C
How it was run: as §1

[7] = tested on: K. pneumoniae 848844 producing SHV-11 and KPC-2; assay: Broth microdilution MIC in CAMHB; format: cell-based; details: Klebsiella pneumoniae, read-out: Minimum Inhibitory Concentration, K. pneumoniae 848844
How it was run: as §1

[8] = tested on: P. aeruginosa ATCC 35151; assay: Broth microdilution MIC in CAMHB; format: cell-based; details: Pseudomonas aeruginosa, ATCC35151; MHB; hyper-permeable strain; read-out: Minimum Inhibitory Concentration, P. aeruginosa ATCC 35151
How it was run: as §1

[9] = tested on: A. baumannii ATCC 19606; assay: Broth microdilution MIC in CAMHB; format: cell-based; details: Acinetobacter baumannii, ATCC19606; MHB; read-out: Minimum Inhibitory Concentration, A. baumannii ATCC 19606
How it was run: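 Colonies from cation-adjusted Mueller Hinton agar are grown in broth (3-5 h, 37° C), adjusted by OD600, and added at 2-8×10^5 CFU/mL to 2-fold compound dilutions. After 16-20 h at 37° C, the lowest concentration without growth is taken as MIC.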

T1 sequence (P0AD68 1-577): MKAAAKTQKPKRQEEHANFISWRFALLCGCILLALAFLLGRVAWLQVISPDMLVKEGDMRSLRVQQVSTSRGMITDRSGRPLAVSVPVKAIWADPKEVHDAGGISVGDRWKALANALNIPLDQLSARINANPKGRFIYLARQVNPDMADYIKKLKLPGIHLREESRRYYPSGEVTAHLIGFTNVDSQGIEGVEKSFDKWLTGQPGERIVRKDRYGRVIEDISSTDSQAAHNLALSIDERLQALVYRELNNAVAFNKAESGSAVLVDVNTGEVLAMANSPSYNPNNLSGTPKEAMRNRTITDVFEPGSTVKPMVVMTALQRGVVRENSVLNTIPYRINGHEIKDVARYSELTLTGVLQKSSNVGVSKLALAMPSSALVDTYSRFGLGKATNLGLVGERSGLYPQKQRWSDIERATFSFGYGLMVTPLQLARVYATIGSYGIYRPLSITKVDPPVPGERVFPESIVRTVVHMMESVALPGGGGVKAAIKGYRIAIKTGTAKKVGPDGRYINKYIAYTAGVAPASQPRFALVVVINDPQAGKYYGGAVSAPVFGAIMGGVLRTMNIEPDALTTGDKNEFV

Row | SMILES | EC50 [1] | MIC [2] | MIC [3] | MIC [4] | MIC [5] | MIC [6] | MIC [7] | MIC [8] | MIC [9]
1 | NCCN1CCN(C(=O)N[C@H](C(=O)N[C@H]2Cc3cccc(C(=O)O)c3OB2O)c2ccc(O)cc2Cl)C(=O)C1=O (single isomer, unassigned) [Example 85] | 30 to 500 µM | > 128 µg/mL | > 128 µg/mL | > 128 µg/mL | > 128 µg/mL | 8 to 16 µg/mL (≈ 13.9 to 27.9 µM) | > 128 µg/mL | 2 to 4 µg/mL (≈ 3.49 to 6.97 µM) | > 128 µg/mL
2 | CCN1CCN(C(=O)NC(C(=O)N[C@H]2Cc3cccc(C(=O)O)c3OB2O)c2cccc(S(N)(=O)=O)c2)C(=O)C1=O (stereo partly drawn) [Example 99, (3R)-3-(2-(4-ethyl-2,3-dioxopiperazine-1-carboxamido)-2-(3-sulfamoylphenyl)acetamido)-2-hydroxy-3,4-dihydro-2H-benzo[e][1,2]oxaborinine-8-carboxylic acid] | 30 to 500 µM | > 128 µg/mL | 32 to 64 µg/mL (≈ 54.5 to 109 µM) | 32 to 64 µg/mL (≈ 54.5 to 109 µM) | 32 to 64 µg/mL (≈ 54.5 to 109 µM) | < 0.25 µg/mL | 32 to 64 µg/mL (≈ 54.5 to 109 µM) | 2 to 4 µg/mL (≈ 3.4 to 6.81 µM) | > 128 µg/mL
3 | CCN1CCN(C(=O)NC(C(=O)N[C@H]2Cc3cccc(C(=O)O)c3OB2O)c2cccc(O)c2)C(=O)C1=O (stereo partly drawn) [Example 68, (3R)-3-(2-(4-ethyl-2,3-dioxopiperazine-1-carboxamido)-2-(3-hydroxyphenyl)acetamido)-2-hydroxy-3,4-dihydro-2H-benzo[e][1,2]oxaborinine-8-carboxylic acid] | 30 to 500 µM | > 128 µg/mL | 32 to 64 µg/mL (≈ 61 to 122 µM) | 32 to 64 µg/mL (≈ 61 to 122 µM) | 32 to 64 µg/mL (≈ 61 to 122 µM) | < 0.25 µg/mL | > 128 µg/mL | 0.5 to 1 µg/mL (≈ 0.954 to 1.91 µM) | > 128 µg/mL
4 | NCCN1CCN(C(=O)N[C@@H](C(=O)N[C@H]2Cc3cccc(C(=O)O)c3OB2O)c2ccc(O)cc2F)C(=O)C1=O (single isomer, unassigned) [Example 89] | 30 to 500 µM | > 128 µg/mL | 32 to 64 µg/mL (≈ 57.4 to 115 µM) | 32 to 64 µg/mL (≈ 57.4 to 115 µM) | 32 to 64 µg/mL (≈ 57.4 to 115 µM) | 2 to 4 µg/mL (≈ 3.59 to 7.18 µM) | 32 to 64 µg/mL (≈ 57.4 to 115 µM) | 0.5 to 1 µg/mL (≈ 0.897 to 1.79 µM) | > 128 µg/mL
5 | CCN1CCN(C(=O)NC(C(=O)N[C@H]2Cc3cccc(C(=O)O)c3OB2O)c2ccc(N)c(F)c2)C(=O)C1=O (stereo partly drawn) [Example 50, (3R)-3-(2-(4-amino-3-fluorophenyl)-2-(4-ethyl-2,3-dioxopiperazine-1-carboxamido)acetamido)-2-hydroxy-3,4-dihydro-2H-benzo[e][1,2]oxaborinine-8-carboxylic acid] | < 30 µM | > 128 µg/mL | 32 to 64 µg/mL (≈ 59.1 to 118 µM) | > 128 µg/mL | 32 to 64 µg/mL (≈ 59.1 to 118 µM) | < 0.25 µg/mL | > 128 µg/mL | 0.5 to 1 µg/mL (≈ 0.924 to 1.85 µM) | > 128 µg/mL
6 | O=C(Nc1ccccc1)NC(C(=O)N[C@H]1Cc2ccc(F)c(C(=O)O)c2OB1O)c1ncc(O)cc1F (stereo partly drawn) [Example 49, (3R)-7-fluoro-3-(2-(3-fluoro-5-hydroxypyridin-2-yl)-2-(3-phenylureido)acetamido)-2-hydroxy-3,4-dihydro-2H-benzo[e][1,2]oxaborinine-8-carboxylic acid] | 30 to 500 µM | > 128 µg/mL | > 128 µg/mL | > 128 µg/mL | > 128 µg/mL | 32 to 64 µg/mL (≈ 62.5 to 125 µM) | > 128 µg/mL | 2 to 4 µg/mL (≈ 3.9 to 7.81 µM) | > 128 µg/mL
7 | NCCN1CCN(C(=O)NC(C(=O)N[C@H]2Cc3ccc(F)c(C(=O)O)c3OB2O)c2nc(N)sc2F)C(=O)C1=O (stereo partly drawn) [Example 24, (3R)-3-(2-(2-amino-5-fluorothiazol-4-yl)-2-(4-(2-aminoethyl)-2,3-dioxopiperazine-1-carboxamido)acetamido)-7-fluoro-2-hydroxy-3,4-dihydro-2H-benzo[e][1,2]oxaborinine-8-carboxylic acid] | 30 to 500 µM | > 128 µg/mL | 32 to 64 µg/mL (≈ 55 to 110 µM) | 32 to 64 µg/mL (≈ 55 to 110 µM) | 32 to 64 µg/mL (≈ 55 to 110 µM) | 2 to 4 µg/mL (≈ 3.44 to 6.88 µM) | > 128 µg/mL | 2 to 4 µg/mL (≈ 3.44 to 6.88 µM) | > 128 µg/mL
8 | CCN1CCN(C(=O)NC(C(=O)N[C@H]2Cc3ccc(F)c(C(=O)O)c3OB2O)c2nc(N)sc2F)C(=O)C1=O (stereo partly drawn) [Example 18, (3R)-3-(2-(2-amino-5-fluorothiazol-4-yl)-2-(4-ethyl-2,3-dioxopiperazine-1-carboxamido)acetamido)-7-fluoro-2-hydroxy-3,4-dihydro-2H-benzo[e][1,2]oxaborinine-8-carboxylic acid] | < 30 µM | > 128 µg/mL | 32 to 64 µg/mL (≈ 56.5 to 113 µM) | 32 to 64 µg/mL (≈ 56.5 to 113 µM) | 8 to 16 µg/mL (≈ 14.1 to 28.3 µM) | 0.5 to 1 µg/mL (≈ 0.883 to 1.77 µM) | 32 to 64 µg/mL (≈ 56.5 to 113 µM) | 0.5 to 1 µg/mL (≈ 0.883 to 1.77 µM) | > 128 µg/mL
9 | CCN1CCN(C(=O)NC(C(=O)N[C@H]2Cc3cccc(C(=O)O)c3OB2O)c2ccc(C(N)=O)c(O)c2)C(=O)C1=O (stereo partly drawn) [Example 45, (3R)-3-(2-(4-carbamoyl-3-hydroxyphenyl)-2-(4-ethyl-2,3-dioxopiperazine-1-carboxamido)acetamido)-2-hydroxy-3,4-dihydro-2H-benzo[e][1,2]oxaborinine-8-carboxylic acid] | < 30 µM | > 128 µg/mL | 32 to 64 µg/mL (≈ 56.4 to 113 µM) | > 128 µg/mL | 32 to 64 µg/mL (≈ 56.4 to 113 µM) | 2 to 4 µg/mL (≈ 3.53 to 7.05 µM) | > 128 µg/mL | < 0.25 µg/mL | > 128 µg/mL
10 | NS(=O)(=O)NC(C(=O)N[C@H]1Cc2ccc(F)c(C(=O)O)c2OB1O)c1ncc(O)cc1F (stereo partly drawn) [Example 43, (3R)-7-fluoro-3-(2-(3-fluoro-5-hydroxypyridin-2-yl)-2-(sulfamoylamino)acetamido)-2-hydroxy-3,4-dihydro-2H-benzo[e][1,2]oxaborinine-8-carboxylic acid] | > 500 µM | > 128 µg/mL | > 128 µg/mL | > 128 µg/mL | > 128 µg/mL | > 128 µg/mL | > 128 µg/mL | 2 to 4 µg/mL (≈ 4.24 to 8.47 µM) | > 128 µg/mL
